Data from patent US12636368B2, “Ionizable lipids for nucleic acid delivery” (Global Life Sciences Solutions Canada ULC, priority 2019, dated 2026).
Like-named read-outs stand apart in the source and are kept apart here.

Legend:
[1] = TNS assay, surface pKa of lipid nanoparticles; type: physicochemical
Method: In embodiments of the invention, the experimental pKa of formulated lipid nanoparticles comprising lipids in Table 1 is calculated using the 2-(p-toluidinyl)naphthalene-6-sulfonic acid (TNS) assay. The procedure for the TNS assay is described in Example 25.
The pKa of each cationic lipid was determined in lipid nanoparticles using an assay based on fluorescence of 6-(p-Toluidino)-2-naphthalenesulfonic acid sodium salt (TNS, Sigma Aldrich), which is a fluorescent probe for the conformational state of proteins5. Empty lipid nanoparticles comprising ionizable lipid in LM02 composition in distilled water at a concentration of 3.125 mM total lipid are formulated using NanoAssemblr® Spark™, and were then was characterized for LNP quality on the Zetasizer™ using a 30× dilution with 1×PBS in the low volume cuvette. Lipid nanoparticles were further diluted 4× using distilled water to 0.781 mM total lipid. TNS was prepared as a 25 μM stock solution in distilled water. Then 6.4 μL of diluted LNP samples of 0.781 mM total lipid were mixed with 10 μL of diluted TNS to a final volume of 250 μL with buffer containing 10 mM HEPES, 10 mM MES, 10 mM NH4OAc and 130 mM NaCl where the pH ranged from 3 to 9 in 0.5 pH increments.
Samples were mixed thoroughly, and the fluorescence intensity was measured at room temperature in a BioTek™ Synergy™ H1 Hybrid Multi-Mode Monochromator™ Fluorescence Microplate Reader using excitation and emission wavelengths of 321 nm and 445 nm respectively. A sigmoidal best fit analysis was applied to the fluorescence data using GraphPad Prism™ software, and the pKa was measured as the pH at half-maximal fluorescence intensity.

C56BL/6 mice = assay: hEPO expression in mice after i.v. EPO mRNA LNPs; type: in vivo
Method: C56BL/6 mice were administered i.v doses of 0.5, 1 or 3 mg/Kg of recombinant human EPO-encoded mRNA LNPs containing ionizable lipids MC3, PNI 76, PNI 121 and PNI 127 using the LM02 composition at N/P 6; hEPO protein was measured using Quantikine® IVD® ELISA Human Erythropoietin Immunoassay protocol. Results for the 0.5 mg/Kg dosage are shown in the scatter plot of FIG. 7. Results for the 1 and 3 mg/Kg doses are shown in FIG. 8 as scatter plots of hEPO expression levels at 6 h (left) and 24 h (right).
In another study, 5-moU EPO mRNA encapsulated in LM02 LNP at an N/P ratio of 6 and a dose of 0.5 mg/Kg comprising a variety of […] ionizable lipids (PNI 336, PNI 534, PNI 535, PNI 342, PNI 321, PNI 532, PNI 538, PNI 541, PNI 325, PNI 328, PNI 329, PNI 539, PNI 540, PNI 127); along with MC3 as a control, were administered. hEPO protein was measured using ProteinSimple® Ella platform, and the rhEPO microfluidic cartridges provided by the manufacturer.
Blood from mice treated with hEPO mRNA LNP was analyzed using an automated ELISA platform “ELLA”, using Simplex™ antibody panel cartridges. Human-specific EPO and mouse-specific IL-5, IL-6, TNF-α, and IFN-γ were measured (reagents from Bio-techne). Briefly, 50 μL of sample reagent (diluted biological sample, quality control, or calibration point sample) were aliquoted into each sample inlet, and 1 mL of wash buffer was added into corresponding inlets on the cartridge. All immunoassay operations (including prime system, flow samples and split them into channels, sample incubation, wash, rehydrate and flow secondary antibody, wash, rehydrate and flow streptavidin dye conjugate, incubate, wash, scan) were processed automatically. Raw signal levels (relative fluorescence units, RFUs), mean signal values, standard deviation, and coefficient of variance (CV) for each glass nanoReactor (GNR) value are provided. RFU values are automatically backfit by the ELLA to produce an analyte concentration per analyte/sample using the manufacturer given calibration methodology.
Reagents were acquired from Quantikine, Minneapolis, MN. The assay was performed as directed on the Quantikine® IVD® ELISA Human Erythropoietin Immunoassay protocol REF DEP00 Package Insert. Briefly; Sera samples of 6 h, and/or 24 h post intravenous administration of 0.5, 1 or 3 mg/kg dose of EPO-encoded mRNA were analyzed for EPO expression analysis, and expressed as mIU/mL. To an EPO antibody pre-coated 96-well microplate, provided by the manufacturer, standards, appropriately diluted sera, and the Horseradish peroxidase (HRP)-conjugated rabbit anti-EPO polyclonal antibody and TMB (Tetramethylbenzidine) as the substrate were added and incubated for 20 minutes. Stop solution (Sulfuric Acid) was added to the wells and the plate was read at 450 nm and the concentration of EPO was calculated. The amount of colour generated is directly proportional to the amount of the conjugate bound to EPO antibody, which in turn is directly proportional to the amount of EPO in the specimen or standard. A standard curve was generated by plotting absorbance versus concentration of provided standards. Quantikine® Human Serum Controls (CEP 01, CEP 03) were used for internal controls.

[2] = LNP size and PDI by dynamic light scattering; type: physicochemical
Method: After the lipid particles were made as described supra, particle size (hydrodynamic diameter of the particles) was determined by Dynamic Light Scattering (DLS) using a ZetaSizer™ Nano ZS™ (Malvern Instruments, UK). He/Ne laser tuned to 633 nm wavelength was used as the light source. Data were measured from the scattered intensity data conducted in backscattering detection mode (measurement angle=173). Measurements were an average of 10 runs of two cycles each per sample. Z-Average size was reported as the particle size, and is defined as the harmonic intensity averaged particle diameter.
(§1) Physical characteristics of lipid nanoparticle (LNP) compositions comprising compounds according to Formula (I) and that were manufactured on the NanoAssemblr® Spark and Benchtop, are shown in Tables 6 and 7 below. Size, size variation of the LNP (PDI), encapsulation efficiency, and pKa are shown. The physical characteristics of these LNP are important from a standpoint of stability, biodistribution, and cell membrane crossing. There was good encapsulation in all the formulations, with polydispersity (PDI) under 0.3. Size and PDI were measured using dynamic light scattering techniques, and nucleic acid encapsulation efficiency was calculated from a modified Quant-iT RiboGreen RNA assay.

[3] = Nucleic acid encapsulation efficiency by RiboGreen assay; type: physicochemical
Method: Messenger RNA or plasmid NAT was diluted using sodium acetate buffer to the required concentration. Lipid nucleic acid particle samples were then prepared by running both fluids using the NanoAssemblr® Spark instrument. […] The lipid nucleic acid particles made in the instrument were immediately diluted down with 48 μL Ca and Mg free 1×PBS at pH 7.4 in the aqueous output well. These nucleic acid lipid particles were immediately collected into microcentrifuge tubes containing 96 μL of Ca and Mg free 1×PBS at pH 7.4. Encapsulation efficiency was measured by a modified Ribogreen™ assay (Quanti-iT RiboGreen™ RNA assay kit, Fisher). Observed particle attributes were generally sized from 60-200 nm for mRNA, depending on lipid composition and method of production.
as §1

primary human T cells = assay: EPO ELISA after EPO mRNA LNP treatment of primary human T cells; type: cell-based; settings: Table 5; for EPO concentration (mIU/mL): EPO mRNA LNPs, 2 pg mRNA per 500,000 cells, N/P 10, 48 hours
Method: Reagents were acquired from Quantikine, Minneapolis, MN. The assay was performed as directed on the Quantikine® IVD® ELISA Human Erythropoietin Immunoassay protocol. REF DEP00 Package Insert. Briefly; primary human T cells were isolated from fresh whole blood using a negative selection protocol and activated using a triple activator. Seven days post-activation, T cells were dosed with mRNA LNPs encoding EPO at 2 pg mRNA per 500,000 cells and N/P 10. Quantikine® Human Serum Controls were used. After 48 hours of treatment with mRNA LNPs the T cells were harvested and lysed for cytosolic EPO and media supernatant was sampled for secreted EPO. Table 5 includes the data of FIG. 6 as well as the fold increase of EPO for PNI 76 and 121 versus MC3.

[4] = tested on: isolated primary human T cells; assay: GFP mRNA-LNP transfection of primary human T cells, flow cytometry; type: cell-based; settings: for % eGFP +: Table 4, transfection efficiency, eGFP mRNA LNPs, CT10, N/P 8
Method: Reagents were from Stemcell Technologies unless otherwise stated. Tcells were isolated from a single donor. At 48 h following lipid particle mRNA exposure, the treated T cells were harvested by transferring the cell suspensions to pre-labeled 1.5 mL tubes and centrifuged 300×g at 4 degrees C. for 10 minutes. Supernatant was removed and the pellet resuspended in PBS. An amount of 0.5 ul of BD Horizon™ Fixable Viability Stain 575V™ (BD Biosciences), was added, and the mixture incubated in the dark for 10 minutes at RT. This stain binds to amines.
The cells were centrifuged again as before, then washed twice with 1 mL of stain buffer (BSA, BD Pharminigen), and the washed pellet was diluted in 100 μl BSA. The following antibodies were added to each tube of treated cells in 2 μl volumes: CD25, CD8, CD4, (PerCP-Cy™ 5.5 Mouse Anti Human CD25, BV786 Mouse Anti-Human CD8 Clone RPA-T8, APC-Cy™7 Mouse Anti-Human CD4 Clone SK3 (all from BD Pharmingen) with the exception of the controls: in the eGFP only sample and viability control, no antibody was added. In the single stain compensation tubes, only one antibody per tube was added.
The tubes were incubated at 4 degrees C. for 30 min, whereupon […] of stain buffer was added, and the cells were centrifuged again. Cells were washed once with 1 mL of stain buffer and spun down again as in step one. Cell pellets were resuspended in 1 mL of stain buffer and added to pre-labeled flow tubes with cell strainer caps (Corning Falcon). […]
GFP MFI was measured by flow cytometry 48 hours after LNP addition. T cells were isolated from whole blood using a negative isolation procedure (EasySep™ Human T Cell Isolation Kit, Stemcell Technologies). T cells were dosed with mRNA-LNPs 3 days after activation with 500 ng of encapsulated mRNA per 125,000 cells. The LNP were CT10 compositions with an N/P of 8. Transfection efficiency (upper graph) and MFI (lower graph) were measured by flow cytometry 48 h after LNP addition.

human T cells = assay: eGFP ELISA after eGFP mRNA LNP treatment of human T cells; type: cell-based; settings: Table 4; for Fold Change Relative to MC3: eGFP (pg) relative to MC3; for eGFP: quantity of expressed eGFP, eGFP mRNA LNPs, CT10
Method: Reagents were acquired from Abcam, Cambridge, UK unless otherwise stated. […] The assay was performed as directed by the eGFP SimpleStep ELISA® Kit protocol. Briefly; frozen human T cells, previously isolated from fresh human whole blood using a negative selection protocol, were thawed and activated using a triple activator. […] After 48 hours of treatment with mRNA LNPs the T cells were harvested and lysed for total eGFP content.
In order to expose the isolated and activated T cells (Day 0) to the formulated mRNA, 2 ug of CleanCap™ eGFP (Trilink Biotechnologies, San Diego, CA) mRNA-containing LNP was added to 500,000 T cells in 1 mL of complete T cell media, with 1 ug/mL of Recombinant Human ApoE4 (“ApoE”) (Peprotech Inc., Montreal, Canada).
Frozen human T cells, previously isolated from fresh human whole blood using a negative selection protocol, were thawed and activated using a triple activator. At 10 days post-activation, T cells were dosed with CT10 mRNA LNPs LNP comprising DLin-MC3-DMA, PNI 76, PNI 119, PNI 120, PNI 121, and PNI 122 encoding eGFP at 2 pg mRNA per 500,000 cells and N/P 10. Protein expression was measured after 48 hours by eGFP ELISA.

[5] = Table 1, formulated lipid nanoparticles, TNS assay, read-out: Exp. pKa
[6] = Table 6, GFP-encoded LNPs, CT10, N/P 8
[7] = Table 7, EPO mRNA LNPs, LM02, N/P 6
[8] = Table 4, determined by TNS assay, read-out: pKa Ex.

Compound: CCCCC/C=C\C/C=C\CCCCCCCC(=O)O[C@@H]1[C@@H](OC(=O)CCCCCCC/C=C\C/C=C\CCCCC)CO[C@@H]1COC(=O)CC1CCCCN1C (mixture of isomers) [PNI 540]
- pKa [1, 5]: 5.6
- pKa ([1]; Table 8, read-out: Exp.pKa): 5.6
- hEPO protein level compared with MC3 (C56BL/6 mice; FIG. 9, 5-moU EPO mRNA, LM02, N/P 6, 0.5 mg/Kg, 6 h): compare well to MC3
- protein expression in vivo compared with MC3 (C56BL/6 mice; summary, Table 7 and Figures): equivalent to MC3
- Diameter (Z. ave, nm) [2, 6]: 60.6 nm
- Polydispersity Index (PDI) [2, 6]: 0.08
- Diameter (Z. ave, nm) [2, 7]: 65.7 nm
- Polydispersity Index (PDI) [2, 7]: 0.05
- Encapsulation Efficiency (%) [3, 6]: 93.5%
- Encapsulation Efficiency (%) [3, 7]: 88.1%

Compound: CCCCC/C=C\C/C=C\CCCCCCCCC(CCCCCCCC/C=C\C/C=C\CCCCC)OC(=O)CCCN(C)C [MC3, DLin-MC3-DMA, reference compound]
- pKa Exp. ([1]; Table 5): 5.99
- EPO Fold Change Relative to MC3 (primary human T cells): 1.0
- EPO concentration (mIU/mL) (primary human T cells): 545.2 mIU/mL
- Diameter (Z. ave, nm) [2, 6]: 77.2 nm
- Polydispersity Index (PDI) [2, 6]: 0.11
- Diameter (Z. ave, nm) [2, 7]: 65.1 nm
- Polydispersity Index (PDI) [2, 7]: 0.04
- Encapsulation Efficiency (%) [3, 6]: 88.6%
- Encapsulation Efficiency (%) [3, 7]: 98.8%

Compound: CCCCC/C=C\C/C=C\CCCCCCCCC(CCCCCCCC/C=C\C/C=C\CCCCC)OC(=O)CCCN(C)C [MC 3, DLin-MC3-DMA, reference compound]
- pKa [1, 8]: 5.99
- % eGFP + [4]: 58.95%
- Fold Change Relative to MC3 (human T cells): 1
- eGFP (human T cells): 1370.0 pg

Compound: CCCCCCCCCCCCCC(=O)O[C@H]1COC([C@@H](COC(=O)CCCN(C)C)OC(=O)CCCCCCCCCCCCC)[C@@H]1OC(=O)CCCCCCCCCCCCC (stereo partly drawn) [PNI 76]
- pKa [1, 5]: 6.42
- pKa [1, 8]: 6.42
- pKa ([1]; Table 5, read-out: pKa Exp.): 6.42
- pKa ([1]; Table 8, read-out: Exp.pKa): 6.4
- transfection efficiency compared with MC3 ([4]; FIG. 1, eGFP mRNA LNP, CT10, N/P 10, 48 hours after treatment): equal transfection efficiency as MC3
- % eGFP + [4]: 62.35%
- Fold Change Relative to MC3 (human T cells): 1.095
- eGFP (human T cells): 1502.0 pg
- EPO Fold Change Relative to MC3 (primary human T cells): 0.93
- EPO concentration (mIU/mL) (primary human T cells): 507.3 mIU/mL
- Diameter (Z. ave, nm) [2, 7]: 83.1 nm
- Polydispersity Index (PDI) [2, 7]: 0.16
- Encapsulation Efficiency (%) [3, 7]: 88.9%

Compound: CCCCCCCCCCCCCC(=O)O[C@@H]1[C@@H](OC(=O)CCCCCCCCCCCCC)CO[C@@H]1COC(=O)CCCN(C)C [PNI]
- pKa [1, 8]: 7.48
- Fold Change Relative to MC3 (human T cells): 0.589
- eGFP (human T cells): 807.0 pg
